Assays:
[1] = Biodistribution in ICR mice after an iv injection; type: in vivo
Excerpt: Biodistribution in ICR Mice After an iv Injection of [^18F][4-(6-{2-[2-(2-Fluoro-ethoxy)-ethoxy]-ethoxy}-naphthalen-2-yl)-phenyl]-methyl-amine in 1% EtOH/0.1% BSA in Water
(% dose/organ, avg of 3 mice±SD)
(% dose/g, avg of 3 mice±SD)
Biodistribution in ICR Mice After an iv Injection of [^18F]19a in 3% EtOH/0.1% BSA in Water
Biodistribution in ICR Mice After an iv Injection of [^18F]34a in 5% EtOH/0.1% BSA in Water
Biodistribution in ICR Mice After an iv Injection of [^18F]32a in 1% EtOH/0.1% BSA in Water

[2] = Log P (octanol/Na2HPO4 buffer pH 7.4); type: physicochemical; details: pH 7.4
[3] = Blood, 2 min after iv injection
[4] = Blood, 30 min after iv injection
[5] = Bone, 30 min after iv injection
[6] = Brain, 2 min after iv injection
[7] = Brain, 30 min after iv injection
[8] = Heart, 2 min after iv injection
[9] = Heart, 30 min after iv injection
[10] = Kidney, 2 min after iv injection
[11] = Kidney, 30 min after iv injection
[12] = Kidney, 1 hr after iv injection
[13] = Kidney, 2 hr after iv injection
[14] = Liver, 2 min after iv injection
[15] = Liver, 30 min after iv injection
[16] = Lung, 30 min after iv injection
[17] = Muscle, 2 min after iv injection
[18] = Muscle, 30 min after iv injection
[19] = Muscle, 1 hr after iv injection
[20] = Muscle, 2 hr after iv injection
[21] = Skin, 30 min after iv injection
[22] = Spleen, 2 min after iv injection
[23] = Spleen, 30 min after iv injection
[24] = Spleen, 1 hr after iv injection
[25] = Spleen, 2 hr after iv injection

- % dose/g [1, 3]: 6.66 ± 0.86 % dose/g
- % dose/organ [1, 3]: 11.1 ± 0.91 % dose/organ
- % dose/g [1, 4]: 4.15 ± 0.59 % dose/g
- % dose/organ [1, 4]: 6.94 ± 0.59 % dose/organ
- % dose/g ([1]; Blood, 1 hr after iv injection): 3.14 ± 0.37 % dose/g
- % dose/organ ([1]; Blood, 1 hr after iv injection): 4.94 ± 0.09 % dose/organ
- % dose/g ([1]; Blood, 2 hr after iv injection): 3.05 ± 0.26 % dose/g
- % dose/organ ([1]; Blood, 2 hr after iv injection): 5.19 ± 0.14 % dose/organ
- % dose/g ([1]; Bone, 2 min after iv injection): 1.32 ± 0.18 % dose/g
- % dose/organ ([1]; Bone, 2 min after iv injection): 4.42 ± 0.82 % dose/organ
- % dose/g [1, 5]: 0.78 ± 0.10 % dose/g
- % dose/organ [1, 5]: 2.59 ± 0.17 % dose/organ
- % dose/g ([1]; Bone, 1 hr after iv injection): 0.82 ± 0.21 % dose/g
- % dose/organ ([1]; Bone, 1 hr after iv injection): 2.60 ± 0.41 % dose/organ
- % dose/g ([1]; Bone, 2 hr after iv injection): 1.37 ± 0.15 % dose/g
- % dose/organ ([1]; Bone, 2 hr after iv injection): 4.67 ± 0.26 % dose/organ
- % dose/g [1, 6]: 5.55 ± 0.77 % dose/g
- % dose/organ [1, 6]: 2.51 ± 0.29 % dose/organ
- % dose/g [1, 7]: 1.29 ± 0.19 % dose/g
- % dose/organ [1, 7]: 0.59 ± 0.07 % dose/organ
- % dose/g ([1]; Brain, 1 hr after iv injection): 1.05 ± 0.20 % dose/g
- % dose/organ ([1]; Brain, 1 hr after iv injection): 0.48 ± 0.06 % dose/organ
- % dose/g ([1]; Brain, 2 hr after iv injection): 0.92 ± 0.10 % dose/g
- % dose/organ ([1]; Brain, 2 hr after iv injection): 0.42 ± 0.06 % dose/organ
- % dose/g [1, 8]: 5.67 ± 0.42 % dose/g
- % dose/organ [1, 8]: 0.63 ± 0.02 % dose/organ
- % dose/g [1, 9]: 1.74 ± 0.19 % dose/g
- % dose/organ [1, 9]: 0.21 ± 0.02 % dose/organ
- % dose/g ([1]; Heart, 1 hr after iv injection): 1.69 ± 0.35 % dose/g
- % dose/organ ([1]; Heart, 1 hr after iv injection): 0.18 ± 0.01 % dose/organ
- % dose/g ([1]; Heart, 2 hr after iv injection): 1.40 ± 0.08 % dose/g
- % dose/organ ([1]; Heart, 2 hr after iv injection): 0.16 ± 0.01 % dose/organ
- % dose/g [1, 10]: 7.88 ± 0.94 % dose/g
- % dose/organ [1, 10]: 3.06 ± 0.21 % dose/organ
- % dose/g [1, 11]: 3.61 ± 0.98 % dose/g
- % dose/organ [1, 11]: 1.38 ± 0.26 % dose/organ
- % dose/g [1, 12]: 3.82 ± 1.54 % dose/g
- % dose/organ [1, 12]: 1.37 ± 0.25 % dose/organ
- % dose/g [1, 13]: 2.41 ± 0.42 % dose/g
- % dose/organ [1, 13]: 0.88 ± 0.12 % dose/organ
- % dose/g [1, 14]: 27.0 ± 0.91 % dose/g
- % dose/organ [1, 14]: 32.0 ± 1.81 % dose/organ
- % dose/g [1, 15]: 21.5 ± 2.08 % dose/g
- % dose/organ [1, 15]: 25.7 ± 0.95 % dose/organ
- % dose/g ([1]; Liver, 1 hr after iv injection): 14.1 ± 1.85 % dose/g
- % dose/organ ([1]; Liver, 1 hr after iv injection): 15.7 ± 1.34 % dose/organ
- % dose/g ([1]; Liver, 2 hr after iv injection): 8.85 ± 0.76 % dose/g
- % dose/organ ([1]; Liver, 2 hr after iv injection): 10.6 ± 0.65 % dose/organ
- % dose/g ([1]; Lung, 2 min after iv injection): 9.19 ± 1.18 % dose/g
- % dose/organ ([1]; Lung, 2 min after iv injection): 1.76 ± 0.20 % dose/organ
- % dose/g [1, 16]: 3.44 ± 0.49 % dose/g
- % dose/organ [1, 16]: 0.67 ± 0.05 % dose/organ
- % dose/g ([1]; Lung, 1 hr after iv injection): 2.68 ± 0.48 % dose/g
- % dose/organ ([1]; Lung, 1 hr after iv injection): 0.41 ± 0.07 % dose/organ
- % dose/g ([1]; Lung, 2 hr after iv injection): 2.48 ± 0.48 % dose/g
- % dose/organ ([1]; Lung, 2 hr after iv injection): 0.45 ± 0.11 % dose/organ
- % dose/g [1, 17]: 0.77 ± 0.14 % dose/g
- % dose/organ [1, 17]: 7.42 ± 1.87 % dose/organ
- % dose/g [1, 18]: 0.75 ± 0.09 % dose/g
- % dose/organ [1, 18]: 7.22 ± 0.42 % dose/organ
- % dose/g [1, 19]: 0.87 ± 0.03 % dose/g
- % dose/organ [1, 19]: 7.86 ± 0.68 % dose/organ
- % dose/g [1, 20]: 0.62 ± 0.11 % dose/g
- % dose/organ [1, 20]: 6.02 ± 0.62 % dose/organ
- % dose/g ([1]; Skin, 2 min after iv injection): 0.70 ± 0.04 % dose/g
- % dose/organ ([1]; Skin, 2 min after iv injection): 2.51 ± 0.07 % dose/organ
- % dose/g [1, 21]: 1.37 ± 0.11 % dose/g
- % dose/organ [1, 21]: 4.93 ± 0.08 % dose/organ
- % dose/g ([1]; Skin, 1 hr after iv injection): 1.32 ± 0.18 % dose/g
- % dose/organ ([1]; Skin, 1 hr after iv injection): 4.46 ± 0.05 % dose/organ
- % dose/g ([1]; Skin, 2 hr after iv injection): 0.77 ± 0.13 % dose/g
- % dose/organ ([1]; Skin, 2 hr after iv injection): 2.81 ± 0.29 % dose/organ
- % dose/g [1, 22]: 6.94 ± 0.99 % dose/g
- % dose/organ [1, 22]: 0.79 ± 0.29 % dose/organ
- % dose/g [1, 23]: 5.03 ± 1.18 % dose/g
- % dose/organ [1, 23]: 0.53 ± 0.04 % dose/organ
- % dose/g [1, 24]: 3.60 ± 0.15 % dose/g
- % dose/organ [1, 24]: 0.30 ± 0.00 % dose/organ
- % dose/g [1, 25]: 3.38 ± 0.52 % dose/g
- % dose/organ [1, 25]: 0.31 ± 0.02 % dose/organ
- Log P [2]: 2.60
SMILES: CNc1ccc2cc(-c3ccc(OCCOCCOCC[18F])cc3)ccc2c1 [[^18F]19a]
